From ChEMBL document CHEMBL5233261, “Recent accomplishments on the synthetic/biological facets of pharmacologically active 1H-1,2,3-triazoles” (Eur J Med Chem, 2021)
Values after ≈ are worked out from the molar mass of the structure shown. Values joined by “and” are separate entries in the source; they are usually repeats but may differ in a detail not shown here. Equal values may be shown once.

Tests used:
MCF7 [1] = experiment: Anticancer activity against human MCF7 cells assessed as cell growth inhibition by MTT assay; type: functional, cell-based
MIA PaCa-2 = experiment: Anticancer activity against human MIA PaCa-2 cells assessed as cell growth inhibition incubated for 48 hrs by SRB assay; type: functional, cell-based; settings: MIA PaCa-2, 48 h
HeLa [2] = experiment: Anticancer activity against human HeLa cells assessed as cell growth inhibition incubated for 48 hrs by SRB assay; type: functional, cell-based
[3] = system: Mycobacterium tuberculosis; experiment: Antibacterial activity against Mycobacterium tuberculosis H37Rv MTCC 200 strain assessed as bacterial growth inhibition; type: functional
HeLa [4] = experiment: Anticancer activity against human HeLa cells assessed as cell growth inhibition incubated for 72 hrs by MTT assay; type: functional, cell-based
MCF7 [5] = experiment: Anticancer activity against human MCF7 cells assessed as cell growth inhibition incubated for 72 hrs by MTT assay; type: functional, cell-based; settings: MCF7, 72 h
Pseudomonas aeruginosa [6] = experiment: Antibacterial activity against Pseudomonas aeruginosa assessed as bacterial growth inhibition; type: functional
MDA-MB-231 [7] = experiment: Potency index, ratio of Tamoxifen IC50 to test compound IC50 for cytotoxicity against human MDA-MB-231 cells by MTT assay; type: functional
MCF7 [8] = experiment: Potency index, ratio of Tamoxifen IC50 to test compound IC50 for cytotoxicity against human MCF7 cells by MTT assay; type: functional
Staphylococcus aureus [9] = experiment: Antibacterial activity against Staphylococcus aureus assessed as bacterial growth inhibition incubated for 24 hrs by agar well diffusion assay; type: functional
Bacillus subtilis [10] = experiment: Antibacterial activity against Bacillus subtilis assessed as bacterial growth inhibition incubated for 24 hrs by agar well diffusion assay; type: functional
[11] = system: Mycobacterium tuberculosis; experiment: Antibacterial activity against Mycobacterium tuberculosis H37Rv strain assessed as bacterial growth inhibition incubated for 7 days by Resazurin Microtiter Assay; type: functional; settings: 168 h, time 7 day
Escherichia coli [12] = experiment: Antibacterial activity against Escherichia coli assessed as bacterial growth inhibition incubated for 24 hrs by agar well diffusion assay; type: functional
[13] = system: Mycobacterium tuberculosis; experiment: Antibacterial activity against Mycobacterium tuberculosis H37Rv ATCC 27294 strain assessed as bacterial growth inhibition by MABA Assay; type: functional
A549 = experiment: Anticancer activity against human A549 cells assessed as cell growth inhibition incubated for 48 hrs by SRB assay; type: functional, cell-based; settings: A549, 48 h
HT-29 = experiment: Anticancer activity against human HT-29 cells assessed as cell growth inhibition incubated for 48 hrs by SRB assay; type: functional, cell-based; settings: HT-29, 48 h
MCF7 [14] = experiment: Anticancer activity against human MCF7 cells assessed as cell growth inhibition incubated for 48 hrs by SRB assay; type: functional, cell-based; settings: MCF7, 48 h
HCT-116 = experiment: Anticancer activity against human HCT-116 cells assessed as cell growth inhibition incubated for 48 hrs by SRB assay; type: functional, cell-based; settings: HCT-116, 48 h
Enterococcus faecalis = experiment: Antibacterial activity against Enterococcus faecalis ATCC 29212 strain assessed as bacterial growth inhibition incubated for 24 hrs; type: functional
MCF7 [15] = experiment: Anticancer activity against human MCF7 cells assessed as cell growth inhibition incubated for 24 hrs by MTT assay; type: functional, cell-based; settings: MCF7, 24 h
Plasmodium berghei = experiment: In vivo antimalarial activity against Plasmodium berghei infected in swiss albino mouse at 50 microg/kg, ip administered as single dose for 4 to 6 weeks relative to control; type: functional; settings: dose 50 µg/kg, time 4-6 weeks
Plasmodium falciparum [16] = experiment: Antimalarial activity against Plasmodium falciparum 3D7 strain incubated for 40 hrs by Giemsa staining based microscopic analysis; type: functional, organism-based; settings: 3D7, 40 h
Plasmodium falciparum [17] = experiment: Antimalarial activity against Plasmodium falciparum RKL-2 strain incubated for 40 hrs by Giemsa staining based microscopic analysis; type: functional, organism-based; settings: RKL-2, 40 h
[18] = system: Staphylococcus epidermidis; experiment: Antibacterial activity against Staphylococcus epidermidis assessed as bacterial growth inhibition; type: functional
Aspergillus niger = experiment: Antifungal activity against Aspergillus niger assessed as […] growth inhibition; type: functional
Escherichia coli [19] = experiment: Antibacterial activity against Escherichia coli assessed as bacterial growth inhibition; type: functional
Candida albicans = experiment: Antifungal activity against Candida albicans assessed as […] growth inhibition; type: functional
Bacillus subtilis [20] = experiment: Antibacterial activity against Bacillus subtilis assessed as bacterial growth inhibition; type: functional
[21] = system: Mycobacterium tuberculosis; experiment: Antibacterial activity against Mycobacterium tuberculosis H37Rv strain assessed as bacterial growth inhibition by MABA Assay; type: functional, organism-based
Plasmodium falciparum [22] = experiment: Antimalarial activity against Plasmodium falciparum 3D7 strain by MSF assay; type: functional, organism-based
MDA-MB-231 [23] = experiment: Anticancer activity against human MDA-MB-231 cells assessed as cell growth inhibition by MTT assay; type: functional, cell-based
HEK293 = experiment: Anticancer activity against human HEK293 cells assessed as cell growth inhibition by MTT assay; type: functional
[24] = system: Mycobacterium tuberculosis; experiment: Antibacterial activity against Mycobacterium tuberculosis H37Ra ATCC 25177 assessed as bacterial growth inhibition by XTT Reduction Menadione Assay; type: functional
Staphylococcus aureus [25] = experiment: Antibacterial activity against Staphylococcus aureus assessed as bacterial growth inhibition incubated for 12 hrs by well plate assay; type: functional
Pseudomonas aeruginosa [26] = experiment: Antibacterial activity against Pseudomonas aeruginosa assessed as bacterial growth inhibition incubated for 12 hrs by well plate assay; type: functional
[27] = system: Staphylococcus epidermidis; experiment: Antibacterial activity against Staphylococcus epidermidis assessed as bacterial growth inhibition incubated for 12 hrs by well plate assay; type: functional
Klebsiella pneumoniae = experiment: Antibacterial activity against Klebsiella pneumoniae assessed as bacterial growth inhibition incubated for 12 hrs by well plate assay; type: functional
[28] = Pseudomonas aeruginosa, read-out: MIC

COc1cc([C@H]2c3cc4c(cc3[C@H](OCc3cn([C@@H]5O[C@H](COC(C)=O)[C@H](OC(C)=O)[C@H](OC(C)=O)[C@H]5OC(C)=O)nn3)[C@@H]3COC(=O)[C@@H]23)OCO4)cc(OC)c1OC
IC50 (MCF7 [1]): 1250 nM

COc1ccc2cccc(-c3cn(CCCOC(=O)C4=C(Cl)c5cc(C)c(C)cc5CCC4)nn3)c2c1
IC50 (MIA PaCa-2): < 10 nM
IC50 (HeLa [2]): 1610 nM

O=C(Cn1cc(-c2ccccc2)nn1)Nc1ccccc1
MIC [3]: 0.0898 umol/cm3

Cc1ccc(-n2cc(CSc3nnc(C(C)c4ccc(CC(C)C)cc4)o3)nn2)c(C)c1 (configuration not stated)
IC50 (HeLa [4]): 27.5 µg/mL (≈ 61.4 µM)
IC50 (MCF7 [5]): 31 µg/mL (≈ 69.3 µM)

NC(=O)N/N=C/c1ccccc1OCc1cn(-c2ccc(Br)cc2)nn1
MIC (Pseudomonas aeruginosa [6]; [28]): 60.2 µM (≈ 25 µg/mL)

Cc1ncc([N+](=O)[O-])n1Cc1cn(CCCCCN2C(=O)C(=O)c3cc(Cl)ccc32)nn1
Ratio IC50 (MDA-MB-231 [7]): 5
Ratio IC50 (MCF7 [8]): 2

Cc1cc(=O)oc2cc(OCc3cn(CCCCCCn4cc(COc5cc6oc(=O)cc(C)c6cc5Cl)nn4)nn3)c(Cl)cc12
inhibition zone (IZ) (Staphylococcus aureus [9]): 16 mm
inhibition zone (IZ) (Bacillus subtilis [10]): 19 mm
MIC [11]: 1.56 µg/mL (≈ 2.34 µM)
inhibition zone (IZ) (Escherichia coli [12]): 14 mm

COc1ccc2nc(Cl)c(C(=O)NCc3cn(Cc4ccc(C#N)cc4)nn3)cc2c1
MIC [13]: 1.6 µg/mL (≈ 3.7 µM)

Cc1ccc(-c2nn(-c3ccccc3)cc2/C=C/C(=O)OCc2cn(-c3ccc([N+](=O)[O-])cc3)nn2)cc1
IC50 (A549): 1960 nM
IC50 (HT-29): 4490 nM
IC50 (MCF7 [14]): 1760 nM
IC50 (HCT-116): 3590 nM

CCOP(=O)(CCn1cc(Cn2cnc3ccccc3c2=O)nn1)OCC
MIC (Enterococcus faecalis): 0.625 µg/mL (≈ 1.6 µM)

CCOC(=O)[C@H]1Cc2c([nH]c3ccccc23)CN1Cc1cn(CCCN2C(=O)C(=O)c3ccccc32)nn1
IC50 (MCF7 [15]): 37400 nM

C[C@H]1[C@H](N=[N+]=[N-])O[C@@H]2O[C@]3(C)CC[C@H]4[C@H](C)CC[C@@H]1[C@@]24OO3
Activity (Plasmodium berghei): 59%
IC50 (Plasmodium falciparum [16]): 0.066 µg/mL (≈ 0.213 µM)
IC50 (Plasmodium falciparum [17]): 0.865 µg/mL (≈ 2.8 µM)

O=C(Cn1cc(-c2ccccc2)nn1)Nc1ccc(F)cc1
MIC [18]: 0.201 umol/cm3
MIC (Aspergillus niger): 0.201 umol/cm3
MIC (Pseudomonas aeruginosa [6]): 0.201 umol/cm3
MIC (Escherichia coli [19]): 0.201 umol/cm3
MIC (Candida albicans): 0.201 umol/cm3
MIC (Bacillus subtilis [20]): 0.201 umol/cm3

NC(=O)N/N=C/c1ccc(OCc2cn(-c3ccc(F)cc3)nn2)cc1
MIC (Pseudomonas aeruginosa [6]; [28]): 35.3 µM (≈ 12.5 µg/mL)

O=c1c(Cn2cc(CCCCCCCCCCCCCCCO)nn2)coc2ccccc12
IC50 [21]: 1.56 µg/mL (≈ 3.44 µM)

Cc1cc(O)c(C(=O)/C=C/c2ccc(OCc3cn(Cc4ccc(Br)cc4)nn3)cc2)c(=O)o1
MIC ([18]; Staphylococcus epidermidis, read-out: MIC): 3 µM (≈ 1.57 µg/mL)
MIC (Aspergillus niger; Aspergillus niger, read-out: MIC): 3 µM (≈ 1.57 µg/mL)
MIC (Pseudomonas aeruginosa [6]; [28]): 3 µM (≈ 1.57 µg/mL)
MIC (Escherichia coli [19]; Escherichia coli, read-out: MIC): 3 µM (≈ 1.57 µg/mL)
MIC (Candida albicans; Candida albicans, read-out: MIC): 3 µM (≈ 1.57 µg/mL)
MIC (Bacillus subtilis [20]; Bacillus subtilis, read-out: MIC): 3 µM (≈ 1.57 µg/mL)

[N-]=[N+]=NCC(=O)NCCNc1ccnc2cc(Cl)ccc12
IC50 (Plasmodium falciparum [22]): 38.8 nM

O=C1C(=O)N(Cc2cn(CC/C(=C(\c3ccccc3)c3ccc(OCCO)cc3)c3ccccc3)nn2)c2c(Br)cc(Br)cc21
IC50 (MDA-MB-231 [23]): 19200 nM
IC50 (MCF7 [1]): 31600 nM
IC50 (HEK293): >100000 nM

CC(=O)Nc1ccc(N2C=C(C(c3c[nH]c4ccc(Br)cc34)c3c[nH]c4ccc(Br)cc34)NN2)cc1
MIC [24]: 3 µg/mL and 1 µg/mL

COc1ccc(C(=O)Cn2cc(CNC(=O)c3cc4cc(OC)ccc4nc3Cl)nn2)cc1
MIC [13]: 1.6 µg/mL (≈ 3.43 µM)

COc1ccccc1/N=C/c1c(OCc2cn(CCC[Si]34OCCN(CCO3)CCO4)nn2)ccc2ccccc12
MIC (Staphylococcus aureus [25]): 26.5 µg/mL (≈ 46.2 µM)
MIC (Pseudomonas aeruginosa [26]): 106 µg/mL (≈ 185 µM)
MIC [27]: 26.5 µg/mL (≈ 46.2 µM)
MIC (Klebsiella pneumoniae): 106 µg/mL (≈ 185 µM)
